Measured values as given in paper PMC5077990, “P53 activation inhibits all types of hematopoietic progenitors and all stages of megakaryopoiesis” (Oncotarget, 2016).
Like-named read-outs stand apart in the source and are kept apart here.

What was measured:
[1] = tested on: Day 6 megakaryoblasts (ploidization); assay: MK ploidy by flow cytometry (CD41/CD42/vital Hoechst staining); format: cell-based, human; conditions: day 6 megakaryoblasts treated 72 hours, analysed day 9; SAR405838 at 1 μM; untreated control 4.4 N
Protocol: First, we investigated if MDM2 inhibitors affect MK ploidization. SAR405838 induced a significant reduction in the mean ploidy (3.0 N at the dose of 1 μM versus 4.4 N for untreated control or for MI-219 treatment) (Supplementary Figure S1). page 1: P53 activation inhibits all types of hematopoietic progenitors and all stages of megakaryopoiesis SUPPLEMENTARY FIGURE Supplementary Figure S1: Effect of SAR405838 on polyploidization. Day 6 megakaryoblasts were treated for 72 hours with various doses of MI-219 or SAR405838. At day 9, ploidy was analyzed by flow cytometry using a CD41/CD42/vital Hoechst staining. N represents the mean ploidy. As shown, SAR405838 induced a significant reduction in the mean ploidy (3.0N at the dose of 1μM versus 4.4N for control or for MI-219 treatment). The Figure illustrates a representative experiment in triplicate. Two other experiments in triplicate gave similar results. […]

Day 8-erythroblasts = assay: Viable erythroblasts counted by Trypan blue exclusion; format: cell-based; conditions: Homo sapiens, day 8-erythroblasts treated 48 hours, read-out: IC50, decrease in viable cells
Protocol: Day 8-erythroblasts were treated with various doses of SAR405838 or MI-219 for 48 hours. The viable cells were counted by Trypan blue exclusion and the apoptotic cells were quantified by flow cytometry analysis using annexin V/ propidium iodide labeling.
B. Day 8-erythroblasts were treated with various doses of MI-219 or SAR405838 for 48 hours and counted by trypan blue exclusion. C. Day 8-erythroblasts were treated with various doses of MI-219 or SAR405838 for 48 hours and apoptotic cells were analyzed by flow cytometry using Annexin V assay. The results represent the mean of 3 independent experiments. * represents statistical significance (*P<0.05; **P<0.01; ***P<0.001).

[2] = tested on: p53 in day 8-erythroblasts; assay: p53 expression by western-blot in day 8-erythroblasts; conditions: Homo sapiens, 192 h, read-out: p53 fold induction (western-blot)
Protocol: For that purpose, CD34^+ progenitors were cultured in serum-free medium with SCF and EPO for 8 days. SAR405838- or MI-219-treated erythroblasts were analyzed for p53 expression by western-blot. […] Day 8-erythroblasts were treated with various doses of SAR405838 or MI-219 for 48 hours.
Figure 4 Effect of SAR405838 on erythroid differentiation A. Day 8-erythroblasts treated with MI-219 or SAR405838 were analyzed for p53 expression by western-blot. β-actin was used as loading control.
Expression levels were performed by western-blot analysis using mouse anti-p53 and anti-β-actin (Sigma-Aldrich), anti-bax (Oncogene), anti-p21 (Beckton Dickenson), anti-Mdm2 (BD Pharmingen), anti-BCL-XL, and rat anti-HSC70 (Stressgen). Proteins were quantified by Image J software.

[3] = tested on: CD34+ progenitors cultured with SCF and TPO; assay: Viable CD34+ progenitors at early stage of megakaryocytic differentiation, Trypan blue exclusion; format: cell-based; conditions: Homo sapiens, read-out: IC50, decrease in number of viable cells
Protocol: We explored the effect of p53 stabilization on the viability of CD34^+progenitors at early stages of megakaryocytic differentiation. CD34^+ progenitors were cultured for one day in serum-free medium supplemented with SCF and TPO and treated with SAR405838 or MI-219. After a 48 or 72 hour incubation, cells were counted by Trypan blue exclusion and apoptotic cells were quantified by flow cytometry using Annexin V / Propidium iodide labeling.
A. Cells were counted by Trypan blue exclusion.

[4] = tested on: p53 target genes (MDM2, PUMA, P21) in CD34+ cells; assay: qRT-PCR of p53 target genes in CD34+ cells; format: cell-based, human; conditions: CD34+ cells cultured one day with TPO and SCF; doses 0.75 M, 1.5 μM, 2.5 μM and 5 μM
Protocol: To investigate the impact of p53 stabilization on hematopoietic progenitors, CD34^+ cells were cultured for one day in serum-free medium with TPO and SCF in the presence of the MDM2 antagonist SAR405838 before quantifying the p53 target genes by qRT-PCR.
Figure 1 Effects of SAR405838 on CD34+ progenitors A. Dose-effect of SAR405838 on p53 target genes by qRT-PCR. CD34^+ cells were treated or not with SAR405838 at various doses ([…], 1.5 μM, 2.5 μM and 5 μM). The expression of P53 and its targets (MDM2, PUMA, P21) were quantified by qRT-PCR related to PPIA. Results are the mean ± SEM of 2 independent experiments in duplicate. B, C, D. Cells were seeded in methylcellulose (B, C) or in fibrin clot (D) in the presence of MI-219 or SAR405838 to assay the number of BFU-E, CFU-GM and CFU-MK progenitors. Results are presented as percentage compared to control. Results represent the mean of 3 experiments for BFU-E and CFU-GM and 3 experiments for CFU-MK made in triplicate. * represents statistical significance using student t test (* P<0.05; **P<0.01; ***P<0.001).
PCRs were carried out in the ABI Prism GeneAmp 5700 (Perkin-Elmer) using the Power SYBR-Green PCR Master Mix (ABI) containing the specific primers. The expression levels of all genes were calculated relatively to HPRT or to PPIA housekeeping gene.

[5] = design: method as in PMID 25145672; conditions: cited from earlier work
[6] = tested on: BFU-E (Burst Forming Unit-Erythroid) progenitors from CD34+ cells; assay: Colony assay in methylcellulose, BFU-E; format: cell-based, human; conditions: for IC50: Homo sapiens
Protocol: CD34^+cells were obtained from leukapheresis samples after mobilization of donors after informed consent in agreement with our Institute Ethic Committee (Assistance Publique des Hôpitaux de Paris) and in accordance with the Declaration of Helsinki. CD34^+cells were isolated by a positive selection using an immunomagnetic cell sorting system (AutoMacs; Miltenyi Biotec, Bergisch Gladbach, Germany). 500 to 1000 normal CD34^+cells were plated either in 1% methylcellulose assay (StemCells technologies, Vancouver, Canada) to quantify erythroid (BFU-E) and granulo-monocytic (CFU-GM) progenitors or in serum-free fibrin clot assay for quantification of MK progenitors (CFU-MK) in the absence or presence of various concentration of SAR405838 or MI-219. Cultures in methylcellulose were stimulated by addition of human recombinant growth factors: G-CSF (20 ng/mL), IL-3 (10 ng/mL) SCF (25 ng/mL, Biovitrum AB, Stockholm, Sweden), IL-6 (10 ng/mL), FLT3 (10 ng/mL) and human EPO (1 U/mL). Cultures in fibrin clot were stimulated with 10 ng/mL TPO (Kirin Brewery, Tokyo, Japan) and 25 ng/mL SCF. BFU-E and CFU-GM colonies were enumerated at day 14 of culture. CFU-MK colonies were enumerated at day 12 after labeling by an indirect immuno-alkaline phosphatase staining technique using an anti-CD41a monoclonal antibody (MoAb; Becton Dickinson, le Pont de Claix, France; clone HIP8), as previously described.

CC(C)(C)C[C@@H]1N[C@@H](C(=O)N[C@H]2CC[C@H](O)CC2)[C@H](c2cccc(Cl)c2F)[C@]12C(=O)Nc1cc(Cl)ccc12 [SAR405838]
mean ploidy [1]: 3.0 N | IC50 (Day 8-erythroblasts): 0.5 µM | fold induction at 2 µM [2]: 4.8 | fold induction at 4 µM [2]: 4.5 | IC50 ([3]; 48 hours of treatment): ~1.5 µM | IC50 ([3]; 72 hours of treatment): ~1.5 µM | MDM2, PUMA and P21 expression (qRT-PCR related to PPIA) [4]: dose-dependent effect | hematopoietic toxicity [5]: reversible thrombocytopenia | IC50 ([6]; 72 h, CD34+ cells treated 3 days, washed, then plated in colony assay, read-out: IC50, reduction of BFU-E progenitors): ~2 µM | IC50 ([6]; CD34+ cells seeded in methylcellulose in the presence of compound, compared to untreated control, read-out: dose inducing a 50% reduction of BFU-E numbers): 0.5 to 1 µM | higher sensitivity of CD34+CD38- progenitors than CD34+CD38+ progenitors (BFU-E) ([6]; sorted CD34+CD38- immature vs CD34+CD38+ committed cells): 2 fold
